Assay results taken from patent publication US20240100068A1, “METHODS COMPRISING ADMINISTRATION OF A GLUCOCORTICOID RECEPTOR AGONIST AND AN INHIBITOR OF CALCINEURIN” (Chengdu Anticancer Bioscience, Ltd., priority 2022, published 2024).
Entries after “also recorded” stand apart in the source; their conditions may differ. Where two headings read alike, the source gives them in different places.

How the values were obtained:
T2MycNick cells [1] = assay: Testing compounds for their ability of restoring contact inhibition (vacuolation, cell density); format: cell-based, murine; conditions: for minimal effective concentration: T2MycNick cells grown beyond confluence, 7-14 days; for diameters of large vacuoles: cells that overgrew beyond confluence; for contact inhibition restoration (CIR) activity: high-density cells
T2MycNick cells [2] = assay: Proliferation and viability of cells cultured under sub-confluence; format: cell-based, murine; conditions: for effect on proliferation and viability: cells grown at sub-confluence
Procedure: (§1) FIG. 1A is a graph showing that DEX has no effect on the viability of murine liver cancer cell lines cultured under sub-confluence. The isogenic murine liver cancer cell lines T2Puro and T2MycNick were passaged and exposed to vehicle or 2 μM of DEX at a confluence of 10%. The cell viability was assayed with Trypan blue exclusion assays at day 3.
FIG. 1C is a graph showing DEX has no effect on the proliferation of murine liver cancer cell lines cultured under sub-confluence the live cell number was calculated daily with an automatic Luna cell counter and relative cell number was shown for T2MycNick.
Exponentially growing murine cells expressing Myc-Nick (T2MycNick cells) were passaged into 24-well plates at a final confluence of 20% and were allowed to attach overnight before being exposed to a test compound at a concentration of 10 μM. T2MycNick cells were generated by expressing the Myc-nick, the N-terminal of the Myc protein, in the T2 cell line, which was, in turn, derived from a MYC-driven mouse liver cancer (Shachaf et al., Nature 2004 Oct. 28; 431(7012):1112-7). The cells were subjected to daily analysis of viability and morphology under an inverted tissue culture microscope or GE InCell Analyzer 2000. Cell density was documented after staining of DNA with PI 7-10 days after the initiation of treatment.

MycNick cells [3] = assay: MTT assay for cellular proliferation; format: cell-based, murine; conditions: confluence of 20-30%, 1 nM to 5 μM
MycNick cells [4] = assay: Soft agar colony formation assay (anchorage-independent growth); format: cell-based, murine; conditions: FIG. 9: 2 μM of DEX or 5 μM of HC, up to 22 days
Procedure: FIG. 9. are images (left) and graphs (right) showing both Hydrocortisone and Dexamethasone suppress the anchorage-independent growth of T2MycNick cells. The T2MycNick cells were mixed with 0.35% soft agar and transferred to 24-well microplates 24 hours before exposed to vehicle, 2 μM of DEX or 5 μM of HC. Images were acquired with an inverted tissue culture microscope at 1, 9 and 22 days after initiation of drug treatment. The sizes of spheroids were quantified with Image J (right).
The soft agar colony formation assay was performed in 6-well plates with two layers of agar. For the first, 0.75% agar in DMEM medium was melted in a microwave oven and poured to form a bottom layer. Once solidified, 10-100K cells in 1 ml of DMEM containing 0.35% agar was added to form the top layer, which was later covered with 0.5 ml of DMEM. Cell culture medium was changed once every two days until colonies were ready to photograph. The antitumor activity of Hydrocortisone and Dexamethasone was tested in soft agar assays. […] The suppression of growth of the cell line in 3D culture is consistent with the suppressive impact of these compounds on cell density when cells were allowed to grow beyond confluence.

[5] = system: murine lung cancer cell line TA2280; assay: Final cell density and vacuolation in lung cancer cell line TA2280; format: cell-based; conditions: for final cell density: 2 weeks
From the text: (§2) FIG. 5A. are images showing Hydrocortisone and Dexamethasone reduce the final cell density in a murine lung cancer cell line TA2280. The cells were exposed to vehicle or the indicated concentrations of either Hydrocortisone or Dexamethasone for 2 weeks. The cells were then fixed and stained with PI for nuclei to reveal the cell density.

[6] = system: human lung cancer cell line A549; assay: Final cell density and vacuolation in lung cancer cell line A549; format: cell-based; conditions: for final cell density: 2 weeks
Procedure: as §2, with “5B” for “5A.”, “are graphs and” for “are”, “a” for “a murine”, “A549 and a breast cancer cell line MDA-MB-231).” for “TA2280.”, “then either numerated with a Luna cell counter or” for “then”
Cells were treated for 10 days with Hydrocortisone and a Calcineurin inhibitor either individually or in combination and then stained with PI for DNA before imaged with an EVOS FL auto microscope.

[7] = system: breast cancer cell line MDA-MB-231; assay: Final cell density and vacuolation in breast cancer cell line MDA-MB-231; format: cell-based; conditions: for final cell density: 2 weeks
From the text: as §2, with “5B” for “5A.”, “are graphs and” for “are”, “a” for “a murine”, “A549 and a breast cancer cell line MDA-MB-231).” for “TA2280.”, “then either numerated with a Luna cell counter or” for “then”

T2Puro [8] = assay: Restoration of contact inhibition and induction of vacuolation in control cell line; format: cell-based, murine; conditions: FIG. 6A: 7 days, 2 μM of DEX
Procedure: (§3) The indicated cell isogenic cell lines were exposed for 7 days to 2 μM of DEX. The cells were then imaged under an inverted tissue culture microscope (top left) or an EVOS FL Auto microscope after staining with Acridine Orange (bottom left). The area occupied by drug-induced vacuoles was quantified with Image J and data (bottom right). At the endpoint, the cells were also numerated with a Luna cell counter and relative cell number is shown (top right).

T2Bc1-xL cells = assay: Restoration of contact inhibition and induction of vacuolation in Bc1-xL expressing cells; format: cell-based, murine; conditions: FIG. 6A: 7 days, 2 μM of DEX
Procedure: as §3

T2MycNick cells [9] = assay: IF analysis of cell-cell junctions (ZO-1, β-catenin) in monolayer zones; format: cell-based, murine; conditions: 7 days
Procedure: FIG. 14A. Are images (left) and graphs (right) showing relocation of β-catenin to the cell-cell junctions in monolayer zones. The murine liver cancer cell line T2MycNick was treated with the indicated concentration of Hydrocortisone or Dexamethasone for 7 days before fixed for IF analysis of β-catenin. DNA was stained with DAPI. Images were acquired with an EVOS FL auto microscope. The relative signal density alone the line in each subpanel was quantified with Image J.
FIG. 14B. Are images (left) and graphs (right) showing relocation of ZO-1 to the cell-cell junctions in monolayer zones. […] The relative signal density alone the line in each subpanel was quantified with Image J. […]
The following are primary antibodies used in this study. […] Primary antibodies were detected with Rhodamine (TRITC)-conjugated AffiniPure Donkey Anti-Rabbit IgG (H+L) (Cat. # 711-025-152), Fluorescein(FITC)-conjugated Affinipure Goat Anti-Rabbit IgG (H+L) (Cat.#111-095-003), Alexa Fluor488 Affinipure Goat Anti-Mouse IgG (H+L) (Cat. #115-545-003 from Jackson ImmunoResearch at 1:500 dilution. After immunostaining, cells were mounted on microscope slides with 4′,6′-diamidino-2-phenylindole (DAPI)-containing Vectashield mounting solution (Vector Laboratories, Cat. # H1500). For fluorescence detection, an EVOS FL Auto microscope (Thermo Fisher) was used.

T2Puro [10] = assay: Proliferation and viability of cells cultured under sub-confluence; format: cell-based, murine
Procedure: as §1
FIG. 1B is a graph showing DEX has no effect on the proliferation of murine liver cancer cell lines cultured under sub-confluence. The live cell number was calculated daily with an automatic Luna cell counter and relative cell number was shown for T2Puro.

C[C@]12CCC(=O)C=C1CC[C@@H]1[C@@H]2[C@@H](O)C[C@@]2(C)[C@H]1CC[C@]2(O)C(=O)CO [HC001, Hydrocortisone]
minimal effective concentration (T2MycNick cells [1]; Mus musculus, PI staining, read-out: Conc that reduces > 50% in the cell density): 0.156 µM
minimal effective concentration (T2MycNick cells [1]; Mus musculus, vacuolation covering no less than 10% of a random field, read-out: Min. effective conc. that elicits vacuolation): 0.156 µM
diameters of large vacuoles (T2MycNick cells [1]): about 20 μm
contact inhibition restoration (CIR) activity (T2MycNick cells [1]): restored contact inhibition
cellular proliferation and viability (T2MycNick cells [2]; 5 μM, grown in sub-confluence): did not affect
effect on proliferation and viability (T2MycNick cells [2]): no detectable effect
proliferation (MTT) (MycNick cells [3]): neither Hydrocortisone nor Cyclosporin A affected the proliferation
anchorage-independent growth (MycNick cells [4]): effectively suppressed; also recorded: suppress
vacuolation [5]: induction of vacuolation
final cell density [5]: Reduction of final cell density
vacuolation [6]: induction of vacuolation
final cell density [6]: Reduction of final cell density
vacuolation [7]: induction of vacuolation
final cell density [7]: Reduction of final cell density
response (contact inhibition, vacuolation) (T2Puro [8]): did not respond
sensitivity (contact inhibition, vacuolation) (T2Bc1-xL cells): did not confer sensitivity
cell-cell junctions in monolayer zones (T2MycNick cells [9]): restored

C[C@@H]1C[C@H]2[C@@H]3CCC4=CC(=O)C=C[C@]4(C)[C@@]3(F)[C@@H](O)C[C@]2(C)[C@@]1(O)C(=O)CO [HC002, Dexamethasone]
minimal effective concentration (T2MycNick cells [1]; PI staining, read-out: Conc that reduces > 50% in the cell density): 0.125 µM
minimal effective concentration (T2MycNick cells [1]; vacuolation covering no less than 10% of a random field, read-out: Min. effective conc. that elicits vacuolation): 0.125 µM
diameters of large vacuoles (T2MycNick cells [1]): about 20 μm
contact inhibition restoration (CIR) activity (T2MycNick cells [1]): restored contact inhibition
viability (Trypan blue exclusion) (T2MycNick cells [2]; 2 μM, confluence of 10%, day 3): no effect
effect on proliferation and viability (T2MycNick cells [2]): no detectable effect
proliferation (relative live cell number) (T2MycNick cells [2]; sub-confluence, counted daily): no effect
viability (Trypan blue exclusion) (T2Puro [10]; 2 μM, confluence of 10%, day 3): no effect
proliferation (relative live cell number) (T2Puro [10]; sub-confluence, counted daily): no effect
anchorage-independent growth (MycNick cells [4]): effectively suppressed; also recorded: suppress
vacuolation [5]: induction of vacuolation
final cell density [5]: Reduction of final cell density
vacuolation [6]: induction of vacuolation
final cell density [6]: Reduction of final cell density
vacuolation [7]: induction of vacuolation
final cell density [7]: Reduction of final cell density
response (contact inhibition, vacuolation) (T2Puro [8]): did not respond
sensitivity (contact inhibition, vacuolation) (T2Bc1-xL cells): did not confer sensitivity
cell-cell junctions in monolayer zones (T2MycNick cells [9]): restored
